Results: ChEMBL document CHEMBL5726652, “Oxazole orexin receptor antagonists” (2017)

Molecular target: T1, Orexin receptor type 2 (Homo sapiens, UniProt O43614)
T1 sequence (O43614 whole entry): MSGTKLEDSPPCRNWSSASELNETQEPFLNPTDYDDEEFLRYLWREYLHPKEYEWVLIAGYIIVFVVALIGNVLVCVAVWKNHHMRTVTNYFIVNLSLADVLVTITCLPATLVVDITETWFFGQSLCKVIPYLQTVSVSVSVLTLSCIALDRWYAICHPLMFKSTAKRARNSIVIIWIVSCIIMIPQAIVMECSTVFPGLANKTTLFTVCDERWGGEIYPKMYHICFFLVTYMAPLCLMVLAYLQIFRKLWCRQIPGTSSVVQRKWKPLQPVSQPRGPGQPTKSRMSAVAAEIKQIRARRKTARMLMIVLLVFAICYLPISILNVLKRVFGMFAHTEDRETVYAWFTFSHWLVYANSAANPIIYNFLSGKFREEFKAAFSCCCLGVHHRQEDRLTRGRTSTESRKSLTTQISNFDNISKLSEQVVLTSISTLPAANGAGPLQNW
Test: FLIPR Ca2+ Flux Assay: For intracellular calcium measurements, Chinese hamster ovary (CHO) cells expressing the rat orexin-1 receptor or the human orexin-2 receptor, are grown in Iscove's modified DMEM containing 2 mM L-glutamine, […], 1% hypoxanthine-thymidine supplement, 100 U/ml penicillin, 100 μg/ml streptomycin and 10% heat-inactivated fetal calf serum (FCS). The cells are seeded at 20,000 cells/well into Becton-Dickinson black 384-well clear bottom sterile plates coated with poly-D-lysine. All reagents were from GIBCO-Invitrogen Corp. The seeded plates are incubated overnight at 37° C. and 5% CO2. Ala-6,12 human orexin-A as the agonist is prepared as a 1 mM stock solution in 1% bovine serum albumin (BSA) and diluted in assay buffer (HBSS containing 20 mM HEPES, 0.1% BSA and 2.5 mM probenecid, pH7.4) for use in the assay at a final concentration of 70 pM. Test compounds are prepared as 10 mM stock solution in DMSO, then diluted in 384-well plates, first in DMSO, then assay buffer. On the day of the assay, cells are washed 3 times with 100 μl assay buffer and then incubated for 60 min (37° C., 5% CO2) in 60 μl assay buffer containing 1 μM Fluo-4AM ester, 0.02% pluronic acid, and 1% BSA. The dye loading solution is then aspirated and cells are washed 3 times with 100 μl assay buffer. 30 μl of that same buffer is left in each well. […]
Assay type: cell-based

Structure (SMILES) | IC50 [nM]
COC(=O)Cc1nc([C@@H]2CC[C@@H](C)N(C(=O)c3ccccc3-n3nccn3)C2)oc1-c1ccccc1 | 33
Cc1oc([C@@H]2CC[C@@H](C)N(C(=O)c3cscc3-c3ncccn3)C2)nc1C(C)(C)O | 56
